Measurements from patent publication US20260041679A1, “METHOD OF TREATING HYPERTENSION WITH THE ALDOSTERONE SYNTHASE INHIBITOR BAXDROSTAT” (CINCOR PHARMA, INC., priority 2022, published 2026).

System: patients with uHTN
Assay: Study 124 Part 2: 2 mg baxdrostat monotherapy for 4 weeks, SBP and safety
Assay type: in vivo, human
Details: for AESI, % / AESI, e - Number of events / AESI, n - Number of subjects / SAEs, % / SAEs, e - Number of events / SAEs, n - Number of subjects / TEAEs Drug-Related, % / TEAEs Drug-Related, e - Number of events / TEAEs Drug-Related, n - Number of subjects / TEAEs Leading to death, % / TEAEs Leading to death, e - Number of events / TEAEs Leading to death, n - Number of subjects / TEAEs Leading to dosing discontinuation, % / TEAEs Leading to dosing discontinuation, e - Number of events / TEAEs Leading to dosing discontinuation, n - Number of subjects / TEAEs Leading to study discontinuation, % / TEAEs Leading to study discontinuation, e - Number of events / TEAEs Leading to study discontinuation, n - Number of subjects / TEAEs, % / TEAEs, e - Number of events / TEAEs, n - Number of subjects: Part 2
Description: Study 124 is a double-blind, placebo-controlled, dose range finding, multicenter study conducted in patients with uHTN receiving background antihypertensive agent(s) that are either an ACEI or an ARB, an ACEI/ARB plus a thiazide diuretic, or an ACEI/ARB plus a calcium channel blocker. The study consists of two parts: Part 1 consists of an 8-week treatment period in which the patients are to be assigned to one of 4 dose groups in equal ratio testing 0.5 mg, 1 mg, and 2 mg baxdrostat effects compared to a placebo. Patients are to administer double-blind baxdrostat tablets once per day while they continue taking the background antihypertensive medications. After 8 weeks of double-blind treatment, patients were to enter part 2 of the study unless the patient was assigned to the 2 mg group and the SBP remains ≥130 mmHg. In part 2 of the study, all patients are to cease dosing with background antihypertensive medication and take only baxdrostat 2 mg dose as a monotherapy for 4 weeks.
The secondary objectives are to evaluate the change from baseline in mean seated DBP with each of the selected dose strengths of baxdrostat compared to placebo after 8 weeks of treatment (Part 1), the change from baseline in 24-hour urine aldosterone and serum aldosterone levels with each of the selected dose strengths of baxdrostat compared to placebo after 8 weeks of treatment (Part 1), the percentage of patients achieving a mean seated SBP<130 mmHg (“responders”) with each of the selected dose strengths of baxdrostat compared to placebo after 8 weeks; and the change from baseline in 24-hour urine renin and serum renin levels with baxdrostat compared to placebo after 8 weeks of treatment. Patients who have completed the Part 2 study through Week 12 or who were considered withdrawn at the end of Part 1 may be eligible to enter a separate open label extension study (Study 130). Part 2 is an exploratory phase of the trial designed to evaluate the effect of 4 weeks of monotherapy with 2 mg baxdrostat in this hypertensive population, but the major goal of the Part 2 period is to transition patients to a long-term open label safety extension study of baxdrostat at the highest dose likely to be used in the hypertension population.
In Part 2, background antihypertensive therapy was discontinued following Part 1, and patients took two mg Baxdrostat for four additional weeks. […] There were two cases of moderate hyperkalemia with K+>/=6.0 mEq/L in the 213 patients in Part 2; both patients had stopped diuretic at the start of Part 2 and developed transient moderate hyperkalemia within 2 weeks.

CCC(=O)N[C@@H]1CCCc2c(-c3ccc4c(c3)CCC(=O)N4C)cncc21 [baxdrostat, (R)—N-(4-(1-methyl-2-oxo-1,2,3,4-tetrahydroquinolin-6-yl)-5,6,7,8-tetrahydroisoquinolin-8-yl) propionamide]
SBP between the start and the end of the four weeks (2 mg only, after withdrawal of background medication): remained stable | safety and tolerability (2 mg, 213 patients who entered Part 2): safe and well-tolerated | cases of moderate hyperkalemia with K+ >/=6.0 mEq/L (213 patients in Part 2): two cases | treatment emergent SAEs (Part 2, 2 mg): 4 events/3 patients with none deemed related to baxdrostat | AESI, % (0.5 mg to 2 mg, n = 63): 0% | AESI, e - Number of events (0.5 mg to 2 mg, n = 63): 0 | AESI, n - Number of subjects (0.5 mg to 2 mg, n = 63): 0 | SAEs, % (0.5 mg to 2 mg, n = 63): 0.0% | SAEs, e - Number of events (0.5 mg to 2 mg, n = 63): 0 | SAEs, n - Number of subjects (0.5 mg to 2 mg, n = 63): 0 | TEAEs Drug-Related, % (0.5 mg to 2 mg, n = 63): 5.6% | TEAEs Drug-Related, e - Number of events (0.5 mg to 2 mg, n = 63): 4 | TEAEs Drug-Related, n - Number of subjects (0.5 mg to 2 mg, n = 63): 3 | TEAEs Leading to death, % (0.5 mg to 2 mg, n = 63): 0.0% | TEAEs Leading to death, e - Number of events (0.5 mg to 2 mg, n = 63): 0 | TEAEs Leading to death, n - Number of subjects (0.5 mg to 2 mg, n = 63): 0 | TEAEs Leading to dosing discontinuation, % (0.5 mg to 2 mg, n = 63): 0% | TEAEs Leading to dosing discontinuation, e - Number of events (0.5 mg to 2 mg, n = 63): 0 | TEAEs Leading to dosing discontinuation, n - Number of subjects (0.5 mg to 2 mg, n = 63): 0 | TEAEs Leading to study discontinuation, % (0.5 mg to 2 mg, n = 63): 0.0% | TEAEs Leading to study discontinuation, e - Number of events (0.5 mg to 2 mg, n = 63): 0 | TEAEs Leading to study discontinuation, n - Number of subjects (0.5 mg to 2 mg, n = 63): 0 | TEAEs, % (0.5 mg to 2 mg, n = 63): 16.7% | TEAEs, e - Number of events (0.5 mg to 2 mg, n = 63): 15 | TEAEs, n - Number of subjects (0.5 mg to 2 mg, n = 63): 9 | AESI, % (1 mg to 2 mg, n = 62): 1.8% | AESI, e - Number of events (1 mg to 2 mg, n = 62): 1 | AESI, n - Number of subjects (1 mg to 2 mg, n = 62): 1 | SAEs, % (1 mg to 2 mg, n = 62): 1.8% | SAEs, e - Number of events (1 mg to 2 mg, n = 62): 2 | SAEs, n - Number of subjects (1 mg to 2 mg, n = 62): 1 | TEAEs Drug-Related, % (1 mg to 2 mg, n = 62): 8.8% | TEAEs Drug-Related, e - Number of events (1 mg to 2 mg, n = 62): 6 | TEAEs Drug-Related, n - Number of subjects (1 mg to 2 mg, n = 62): 5 | TEAEs Leading to death, % (1 mg to 2 mg, n = 62): 0.0% | TEAEs Leading to death, e - Number of events (1 mg to 2 mg, n = 62): 0 | TEAEs Leading to death, n - Number of subjects (1 mg to 2 mg, n = 62): 0 | TEAEs Leading to dosing discontinuation, % (1 mg to 2 mg, n = 62): 3.5% | TEAEs Leading to dosing discontinuation, e - Number of events (1 mg to 2 mg, n = 62): 3 | TEAEs Leading to dosing discontinuation, n - Number of subjects (1 mg to 2 mg, n = 62): 2 | TEAEs Leading to study discontinuation, % (1 mg to 2 mg, n = 62): 0.0% | TEAEs Leading to study discontinuation, e - Number of events (1 mg to 2 mg, n = 62): 0 | TEAEs Leading to study discontinuation, n - Number of subjects (1 mg to 2 mg, n = 62): 0 | TEAEs, % (1 mg to 2 mg, n = 62): 21.1% | TEAEs, e - Number of events (1 mg to 2 mg, n = 62): 26 | TEAEs, n - Number of subjects (1 mg to 2 mg, n = 62): 12 | AESI, % (2 mg, n = 60): 2.4% | AESI, e - Number of events (2 mg, n = 60): 1 | AESI, n - Number of subjects (2 mg, n = 60): 1 | SAEs, % (2 mg, n = 60): 0% | SAEs, e - Number of events (2 mg, n = 60): 0 | SAEs, n - Number of subjects (2 mg, n = 60): 0 | TEAEs Drug-Related, % (2 mg, n = 60): 0% | TEAEs Drug-Related, e - Number of events (2 mg, n = 60): 0 | TEAEs Drug-Related, n - Number of subjects (2 mg, n = 60): 0 | TEAEs Leading to death, % (2 mg, n = 60): 0.0% | TEAEs Leading to death, e - Number of events (2 mg, n = 60): 0 | TEAEs Leading to death, n - Number of subjects (2 mg, n = 60): 0 | TEAEs Leading to dosing discontinuation, % (2 mg, n = 60): 0% | TEAEs Leading to dosing discontinuation, e - Number of events (2 mg, n = 60): 0 | TEAEs Leading to dosing discontinuation, n - Number of subjects (2 mg, n = 60): 0 | TEAEs Leading to study discontinuation, % (2 mg, n = 60): 0.0% | TEAEs Leading to study discontinuation, e - Number of events (2 mg, n = 60): 0 | TEAEs Leading to study discontinuation, n - Number of subjects (2 mg, n = 60): 0 | TEAEs, % (2 mg, n = 60): 16.7% | TEAEs, e - Number of events (2 mg, n = 60): 9 | TEAEs, n - Number of subjects (2 mg, n = 60): 7 | AESI, % (Placebo to 2 mg, n = 64): 1.7% | AESI, e - Number of events (Placebo to 2 mg, n = 64): 2 | AESI, n - Number of subjects (Placebo to 2 mg, n = 64): 1 | SAEs, % (Placebo to 2 mg, n = 64): 3.3% | SAEs, e - Number of events (Placebo to 2 mg, n = 64): 2 | SAEs, n - Number of subjects (Placebo to 2 mg, n = 64): 2 | TEAEs Drug-Related, % (Placebo to 2 mg, n = 64): 5.0% | TEAEs Drug-Related, e - Number of events (Placebo to 2 mg, n = 64): 5 | TEAEs Drug-Related, n - Number of subjects (Placebo to 2 mg, n = 64): 3 | TEAEs Leading to death, % (Placebo to 2 mg, n = 64): 0.0% | TEAEs Leading to death, e - Number of events (Placebo to 2 mg, n = 64): 0 | TEAEs Leading to death, n - Number of subjects (Placebo to 2 mg, n = 64): 0 | TEAEs Leading to dosing discontinuation, % (Placebo to 2 mg, n = 64): 0% | TEAEs Leading to dosing discontinuation, e - Number of events (Placebo to 2 mg, n = 64): 0 | TEAEs Leading to dosing discontinuation, n - Number of subjects (Placebo to 2 mg, n = 64): 0 | TEAEs Leading to study discontinuation, % (Placebo to 2 mg, n = 64): 0.0% | TEAEs Leading to study discontinuation, e - Number of events (Placebo to 2 mg, n = 64): 0 | TEAEs Leading to study discontinuation, n - Number of subjects (Placebo to 2 mg, n = 64): 0 | TEAEs, % (Placebo to 2 mg, n = 64): 21.7% | TEAEs, e - Number of events (Placebo to 2 mg, n = 64): 24 | TEAEs, n - Number of subjects (Placebo to 2 mg, n = 64): 13 | AESI, % (Total, n = 249): 1.4% | AESI, e - Number of events (Total, n = 249): 4 | AESI, n - Number of subjects (Total, n = 249): 3 | SAEs, % (Total, n = 249): 1.4% | SAEs, e - Number of events (Total, n = 249): 4 | SAEs, n - Number of subjects (Total, n = 249): 3 | TEAEs Drug-Related, % (Total, n = 249): 5.2% | TEAEs Drug-Related, e - Number of events (Total, n = 249): 15 | TEAEs Drug-Related, n - Number of subjects (Total, n = 249): 11 | TEAEs Leading to death, % (Total, n = 249): 0.0% | TEAEs Leading to death, e - Number of events (Total, n = 249): 0 | TEAEs Leading to death, n - Number of subjects (Total, n = 249): 0 | TEAEs Leading to dosing discontinuation, % (Total, n = 249): 0.9% | TEAEs Leading to dosing discontinuation, e - Number of events (Total, n = 249): 3 | TEAEs Leading to dosing discontinuation, n - Number of subjects (Total, n = 249): 2 | TEAEs Leading to study discontinuation, % (Total, n = 249): 0.0% | TEAEs Leading to study discontinuation, e - Number of events (Total, n = 249): 0 | TEAEs Leading to study discontinuation, n - Number of subjects (Total, n = 249): 0 | TEAEs, % (Total, n = 249): 19.2% | TEAEs, e - Number of events (Total, n = 249): 74 | TEAEs, n - Number of subjects (Total, n = 249): 41
